Each structure is given as a SMILES string.

Common to all, as to type: cell-based
For one assay, the system named is HIV-1 (strain IIIB). The assay can be described thus: MT4 cell assay, antiviral HIV activity (propidium iodide). As to conditions: Human immunodeficiency virus 1, IIIB; Virus Type HIV-1; Assay MT4; read-out: IC50 (nM) Range. On the procedure:
Antiviral HIV activity and compound-induced cytotoxicity were measured in parallel by means of a propidium iodide based procedure in the human T-cell lymphotropic virus transformed cell line MT4. Aliquots of the test compounds were serially diluted in medium (RPMI 1640, 10% fetal calf serum (FCS), and gentamycin) in 96-well plates (Costar 3598) using a Cetus Pro/Pette. Exponentially growing MT4 cells were harvested and centrifuged at 1000 rpm for 10 min in a Jouan centrifuge (model CR 4 12). Cell pellets were resuspended in fresh medium (RPMI 1640, 20% FCS, 20% IL-2, and gentamycin) to a density of 5×10^5 cells/ml. Cell aliquots were infected by the addition of HIV-1 (strain IIIB) diluted to give a viral multiplicity of infection of 100×TCID50. A similar cell aliquot was diluted with medium to provide a mock-infected control. Cell infection was allowed to proceed for 1 hr at 37° C. in a tissue culture incubator with humidified 5% CO2 atmosphere. After the 1 hr incubation the virus/cell suspensions were diluted 6-fold with fresh medium, and 125 μl of the cell suspension was added to each well of the plate containing pre-diluted compound. Plates were then placed in a tissue culture incubator with humidified 5% CO2 for 5 days. At the end of the incubation period, 27 μl of 5% Nonidet-40 was added to each well of the incubation plate. After thorough mixing with a Costar multitip pipetter, 60 μl of the mixture was transferred to filter-bottomed 96-well plates. The plates were analyzed in an automated assay instrument (Screen Machine, Idexx Laboratories). The control and standard used was 3′-azido-3′-deoxythymidine tested over a concentration range of 0.01 to 1 μM in every assay. […] The assay-makes use of a propidium iodide dye to estimate the DNA content of each well.
The antiviral effect of a test compound is reported as an IC50, i.e. the inhibitory concentration that would produce a 50% decrease in the HIV-induced cytopathic effect. This effect is measured by the amount of test compound required to restore 50% of the cell growth of HIV-infected MT4 cells, compared to uninfected MT4 cell controls. IC50 was calculated by RoboSage, Automated Curve Fitting Program, version 5.00, 10 Jul. 1995.
For each assay plate, the results (relative fluorescence units, rfU) of wells containing uninfected cells or infected cells with no compound were averaged, respectively. For measurements of compound-induced cytotoxicty, results from wells containing various compound concentrations and uninfected cells were compared to the average of uninfected cells without compound treatment. Percent of cells remaining is determined by the following formula: Percent of cells remaining=(compound−treated uninfected cells, rfU/untreated uninfected cells)×100.
A level of percent of cells remaining of 79% or less indicates a significant level of direct compound-induced cytotoxicity for the compound at that concentration. When this condition occurs the results from the compound-treated infected wells at this concentration are not included in the calculation of IC50.
For measurements of compound antiviral activity, results from wells containing various compound concentrations and infected cells are compared to the average of uninfected and infected cells without compound treatment. Percent inhibition of virus is determined by the following formula: Percent inhibition of virus=(1−((ave. untreated uninfected cells−treated infected cells)/(ave. untreated uninfected cells−ave. untreated infected cells)))×100

In assay [1] the test system is isogenic HIV-1 RT mutant virus K101E. In words: HeLa cell assay (HIV-LTR β-galactosidase reporter). The note with it: Human immunodeficiency virus 1, HeLa, read-out: IC50 (nM) Range. A digest of the protocol: (§1)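 HeLa-CD4-LTR-β-gal cells, seeded overnight, were infected with isogenic recombinant HXB2 RT-mutant virus (50 to 70 total RLUs per well, DEAE-dextran) for 1.5 to 2 hours. Five-fold compound titrations (2 μM to 1 pM final, 0.1% DMSO) followed, with 72 h at 37° C. IC50 is chemiluminescent β-gal signal inhibition versus untreated controls.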

The test system of assay [2] is isogenic HIV-1 RT mutant virus V106A. In words: HeLa cell assay (HIV-LTR β-galactosidase reporter). The note with it: Human immunodeficiency virus 1, HeLa, read-out: IC50 (nM) Range. The method, boiled down:
as §1

Turning to `Cc1cc(C#N)cc(C(=O)c2cc(Cl)ccc2OCC(=O)Nc2ccc(OCCCN3CC=CC3)cc2C)c1` [Compound 593], in the assay on HIV-1 (strain IIIB), the IC50 was < 10 nM.

In the case of `Cc1cc(S(N)(=O)=O)ccc1NC(=O)COc1ccc(Cl)cc1C(=O)c1cccc(C#N)n1` [Compound 637], the half-inhibitory concentration (IC50) in the assay on HIV-1 (strain IIIB) was < 10 nM.

Consider `Cc1cc(S(N)(=O)=O)ccc1NC(=O)COc1ccc(Cl)cc1C(=O)c1cc(Cl)cc(C#N)c1` [Compound 475], for which the IC50 in the assay with HIV-1 (strain IIIB) is < 10 nM.

Turning to `Cc1cc(S(N)(=O)=O)ccc1NC(=O)COc1ccc(Cl)cc1C(=O)c1cc(F)cc(C(F)(F)F)c1` [Compound 78], the IC50 is < 10 nM in the assay with HIV-1 (strain IIIB), < 10 nM in assay [1] and 11 to 100 nM in assay [2].

On to `Cc1cc2nc[nH]c2cc1NC(=O)COc1ccc(Cl)cc1C(=O)c1cc(F)cc(C(F)(F)F)c1` [Compound 239], for which the IC50 is < 10 nM in the assay on HIV-1 (strain IIIB), < 10 nM in assay [1] and 11 to 100 nM in assay [2].

`Cc1cc(C#N)cc(C(=O)c2cc(Cl)ccc2OCC(=O)Nc2ccc(S(N)(=O)=O)nc2C)c1` [Compound 503]: in the assay on HIV-1 (strain IIIB), the IC50 was < 10 nM.

Turning to `Cc1cc2cn[nH]c2cc1NC(=O)COc1ccc(Cl)cc1C(=O)c1cccc(C#N)c1` [Compound 453], the IC50 in the assay with HIV-1 (strain IIIB) was < 10 nM; in assay [1], < 10 nM; in assay [2] it was 101 to 1000 nM.

Turning to `Cc1cc(C#N)cc(C(=O)c2cc(Cl)ccc2OCC(=O)Nc2ccc(S(N)(=O)=O)cc2C)c1` [Compound 564], in the assay with HIV-1 (strain IIIB), the IC50 was < 10 nM.

With `Cc1cc(OCCCS(N)(=O)=O)ccc1NC(=O)COc1ccc(Cl)cc1C(=O)c1cc(F)cc(C(F)(F)F)c1` [Compound 257], the IC50 with HIV-1 (strain IIIB) was < 10 nM; in assay [1], < 10 nM; in assay [2], 11 to 100 nM.

Regarding `Cc1cc(S(N)(=O)=O)ccc1NC(=O)COc1ccc(Cl)cc1C(=O)c1cc(F)cc(F)c1` [Compound 62], the IC50 is < 10 nM in the assay on HIV-1 (strain IIIB), < 10 nM in assay [1] and 11 to 100 nM in assay [2].

Turning to `Cc1cc(C)cc(C(=O)c2cc(Cl)ccc2OCC(=O)Nc2ccc(S(N)(=O)=O)cc2C)c1` [Compound 478], in the assay with HIV-1 (strain IIIB), the concentration for half-maximal inhibition (IC50) was < 10 nM.

Turning to `Cc1cc(C#N)cc(C(=O)c2cc(Cl)ccc2OCC(=O)Nc2cnc(S(N)(=O)=O)cc2C)c1` [Compound 587], the IC50 with HIV-1 (strain IIIB) was < 10 nM.

As to `CCc1cc(C#N)cc(C(=O)c2cc(Cl)ccc2OCC(=O)Nc2ccc(S(N)(=O)=O)cc2C)c1` [Compound 498], the IC50 in the assay with HIV-1 (strain IIIB) was < 10 nM.

Consider `Cc1cc(S(N)(=O)=O)ccc1NC(=O)COc1ccc(Cl)cc1C(=O)c1cccc(C#N)c1` [Compound 448], for which the half-inhibitory concentration (IC50) with HIV-1 (strain IIIB) was < 10 nM; in assay [1], < 10 nM; in assay [2], 11 to 100 nM.

With `Cc1cc(S(N)(=O)=O)ccc1NC(=O)COc1ccc(Cl)cc1C(=O)c1cc(F)cc(C#N)c1` [Compound 491], in the assay with HIV-1 (strain IIIB), the IC50 was < 10 nM.

(Values after patent US7273863B1, “Benzophenones as inhibitors of reverse transcriptase” (SmithKline Beecham Corporation, priority 1999, dated 2007).)
